In patent publication US12138263B2, “Pyrazolo[3,4-b]pyrazine SHP2 phosphatase inhibitors and methods of use thereof” (Relay Therapeutics, Inc., priority 2018, dated 2024):
Where a name gives a salt, the structure may show the parent alone.

Target: SHP2 (Homo sapiens (Human), UniProt Q06124)
Assay: SHP2 allosteric inhibition assay (DiFMUP prompt fluorescence)
Format: biochemical
Details: 0.25 nM SHP2 with 0.5 μM peptide IRS1_pY1172(dPEG8)pY1222, substrate DiFMUP 100 μM

Sequence of SHP2 (Q06124 whole entry): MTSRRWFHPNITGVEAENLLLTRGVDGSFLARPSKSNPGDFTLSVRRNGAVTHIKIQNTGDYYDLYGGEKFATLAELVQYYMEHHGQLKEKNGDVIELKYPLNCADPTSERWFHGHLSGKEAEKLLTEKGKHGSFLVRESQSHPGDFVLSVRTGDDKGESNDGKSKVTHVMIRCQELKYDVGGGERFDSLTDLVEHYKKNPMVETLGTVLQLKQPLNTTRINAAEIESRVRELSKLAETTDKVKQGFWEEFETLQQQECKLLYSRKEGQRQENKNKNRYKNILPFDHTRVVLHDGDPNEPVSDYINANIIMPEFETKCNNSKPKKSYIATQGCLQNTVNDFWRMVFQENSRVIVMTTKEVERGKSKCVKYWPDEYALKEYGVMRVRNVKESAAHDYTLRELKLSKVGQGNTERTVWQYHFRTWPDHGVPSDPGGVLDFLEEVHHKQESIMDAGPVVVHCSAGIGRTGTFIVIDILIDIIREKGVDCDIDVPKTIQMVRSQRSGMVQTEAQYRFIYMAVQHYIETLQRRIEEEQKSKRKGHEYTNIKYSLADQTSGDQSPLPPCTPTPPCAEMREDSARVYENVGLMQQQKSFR

O=S(=O)(F)Oc1ccc2c(c1)CCCN2c1n[nH]c2nc(N3CCCCC3)cnc12 [Compound 1A]
IC50 (Table 1): ≥ 10000 nM

COC(=O)C1(c2cnc3c(-c4cccc(Cl)c4F)n[nH]c3n2)CCNCC1 [Compound 1B, methyl 4-(3-(3-chloro-2-fluorophenyl)-1H-pyrazolo[3,4-b]pyrazin-6-yl)piperidine-4-carboxylate]
IC50 (Table 2): < 1000 nM

CC1(CN)CCN(c2nc3[nH]nc(-c4cccc(Cl)c4F)c3nc2C#N)CC1 [Compound 1C]
IC50 (Table 3): < 1000 nM

CN(c1cnc2c(-c3cccc(Cl)c3F)n[nH]c2n1)c1ncccc1CN [Compound 1D, N-(3-(aminomethyl)pyridin-2-yl)-3-(3-chloro-2-fluorophenyl)-N-methyl-1H-pyrazolo[3,4-b]pyrazin-6-amine]
IC50 (Table 4): < 1000 nM

O=S(=O)(F)Oc1cccc2c1CCCN2c1n[nH]c2nc(N3CCCCC3)cnc12 [Compound 2A]
IC50 (Table 1): ≥ 10000 nM

Fc1c(Cl)cccc1-c1n[nH]c2nc(C3CCNCC3)cnc12 [Compound 2B]
IC50 (Table 2): < 1000 nM

CC1(CN)CCN(c2nc3[nH]nc(-c4cccc(Cl)c4F)c3nc2C(N)=O)CC1 [Compound 2C]
IC50 (Table 3): < 1000 nM

CN(c1cnc2c(-c3cccc(Cl)c3F)n[nH]c2n1)c1ncccc1CCN [Compound 2D, N-(3-(2-aminoethyl)pyridin-2-yl)-3-(3-chloro-2-fluorophenyl)-N-methyl-1H-pyrazolo[3,4-b]pyrazin-6-amine]
IC50 (Table 4): < 1000 nM

CC1(CN)CCN(c2cnc3c(N4CCCc5c(OS(=O)(=O)F)cccc54)n[nH]c3n2)CC1 [Compound 3A]
IC50 (Table 1): < 1000 nM

NC(=O)C1(c2cnc3c(-c4cccc(Cl)c4F)n[nH]c3n2)CCNCC1 [Compound 3B]
IC50 (Table 2): < 1000 nM

CC1(N)CCN(c2nc3[nH]nc(-c4cccc(Cl)c4F)c3nc2C(N)=O)CC1 [Compound 3C, 6-(4-amino-4-methylpiperidin-1-yl)-3-(3-chloro-2-fluorophenyl)-1H-pyrazolo[3,4-b]pyrazine-5-carboxamide]
IC50 (Table 3): < 1000 nM

CN(c1cnc2c(N3CCCc4ncccc43)n[nH]c2n1)c1ncccc1CCN [Compound 3D, N-(3-(2-aminoethyl)pyridin-2-yl)-3-(3,4-dihydro-1,5-naphthyridin-1(2H)-yl)-N-methyl-1H-pyrazolo[3,4-b]pyrazin-6-amine]
IC50 (Table 4): 1000 to 10000 nM

O=S(=O)(F)c1cccc2c1CCCN2c1n[nH]c2nc(N3CCCCC3)cnc12 [Compound 4A]
IC50 (Table 1): ≥ 10000 nM

OCC1(c2cnc3c(-c4cccc(Cl)c4F)n[nH]c3n2)CCNCC1 [Compound 4B]
IC50 (Table 2): < 1000 nM

CC1(N)CCN(c2nc3[nH]nc(-c4cccc(Cl)c4F)c3nc2C(=O)O)CC1 [Compound 4C, 6-(4-amino-4-methylpiperidin-1-yl)-3-(3-chloro-2-fluorophenyl)-1H-pyrazolo[3,4-b]pyrazine-5-carboxylic Acid]
IC50 (Table 3): 1000 to 10000 nM

NC1CCN(C(=O)c2cnc3c(-c4cccc(Cl)c4F)n[nH]c3n2)C1 (stereo not shown) [Compound 5B]
IC50 (Table 2): 1000 to 10000 nM

CC1(CN)CCN(c2nc3[nH]nc(N4CCCc5ncccc54)c3nc2O)CC1 [Compound 5C, 6-(4-(aminomethyl)-4-methylpiperidin-1-yl)-3-(3,4-dihydro-1,5-naphthyridin-1(2H)-yl)-1H-pyrazolo[3,4-b]pyrazin-5-ol]
IC50 (Table 3): < 1000 nM

CC1(CN)CCN(c2cnc3c(N4CCCc5cc(OS(=O)(=O)F)ccc54)n[nH]c3n2)CC1 [Compound 6A]
IC50 (Table 1): < 1000 nM

CC1(CN)CCN(C(=O)c2cnc3c(-c4cccc(Cl)c4F)n[nH]c3n2)C1 (stereo not shown) [Compound 6B]
IC50 (Table 2): ≥ 10000 nM

Cc1nc2c(N3CCCc4ncccc43)n[nH]c2nc1N1CCC(C)(CN)CC1 [Compound 6C, (1-(3-(3,4-dihydro-1,5-naphthyridin-1(2H)-yl)-5-methyl-1H-pyrazolo[3,4-b]pyrazin-6-yl)-4-methylpiperidin-4-yl)methanamine]
IC50 (Table 3): < 1000 nM

C[C@@H]1OCC2(CCN(c3cnc4c(N5CCCc6cc(OS(=O)(=O)F)ccc65)n[nH]c4n3)CC2)[C@@H]1N [Compound 7A, 1-(6-((3S,4S)-4-amino-3-methyl-2-oxa-8-azaspiro[4.5]decan-8-yl)-1H-pyrazolo[3,4-b]pyrazin-3-yl)-1,2,3,4-tetrahydroquinolin-6-yl Sulfurofluoridate]
IC50 (Table 1): < 1000 nM

CN(CCN)C(=O)c1cnc2c(-c3cccc(Cl)c3F)n[nH]c2n1 [Compound 7B]
IC50 (Table 2): ≥ 10000 nM

CC1(CN)CCN(c2nc3[nH]nc(N4CCCc5ncccc54)c3nc2C#N)CC1 [Compound 7C, 6-[4-(aminomethyl)-4-methylpiperidin-1-yl]-3-(1,2,3,4-tetrahydro-1,5-naphthyridin-1-yl)-1H-pyrazolo[3,4-b]pyrazine-5-carbonitrile]
IC50 (Table 3): < 1000 nM

O=S(=O)(F)Oc1cnc2c(N3CCCc4ncccc43)n[nH]c2n1 [Compound 8A]
IC50 (Table 1): ≥ 10000 nM

OC1(c2cnc3c(-c4cccc(Cl)c4F)n[nH]c3n2)CCNCC1 [Compound 8B]
IC50 (Table 2): < 1000 nM

CC1(CN)CCN(c2nc3[nH]nc(N4CCCc5ncccc54)c3nc2C(N)=O)CC1 [Compound 8C, 6-[4-(aminomethyl)-4-methylpiperidin-1-yl]-3-(1,2,3,4-tetrahydro-1,5-naphthyridin-1-yl)-1H-pyrazolo[3,4-b]pyrazine-5-carboxamide]
IC50 (Table 3): < 1000 nM

NCc1ccn(Cc2cnc3c(-c4cccc(Cl)c4F)n[nH]c3n2)n1 [Compound 9B, (1-((3-(3-chloro-2-fluorophenyl)-1H-pyrazolo[3,4-b]pyrazin-6-yl)methyl)-1H-pyrazol-3-yl)methanamine]
IC50 (Table 2): ≥ 10000 nM

COC(=O)c1nc2c(N3CCCc4ncccc43)n[nH]c2nc1N1CCC(C)(CN)CC1 [Compound 9C, methyl 6-[4-(aminomethyl)-4-methylpiperidin-1-yl]-3-(1,2,3,4-tetrahydro-1,5-naphthyridin-1-yl)-1H-pyrazolo[3,4-b]pyrazine-5-carboxylate]
IC50 (Table 3): < 1000 nM

NCc1ccccc1-c1cnc2c(N3CCCc4ncccc43)n[nH]c2n1 [Compound 10B, (2-(3-(3,4-dihydro-1,5-naphthyridin-1(2H)-yl)-1H-pyrazolo[3,4-b]pyrazin-6-yl)phenyl)methanamine]
IC50 (Table 2): ≥ 10000 nM

COc1nc2c(N3CCCc4ncccc43)n[nH]c2nc1N1CCC2(CC1)CO[C@@H](C)[C@H]2N [Compound 10C, (3S,4S)-8-[5-methoxy-3-(1,2,3,4-tetrahydro-1,5-naphthyridin-1-yl)-1H-pyrazolo[3,4-b]pyrazin-6-yl]-3-methyl-2-oxa-8-azaspiro[4.5]decan-4-amine dihydrochloride]
IC50 (Table 3): < 1000 nM

CC(C)(CN)c1cnc2c(-c3cccc(Cl)c3F)n[nH]c2n1 [Compound 11B, 2-[3-(3-chloro-2-fluorophenyl)-1H-pyrazolo[3,4-b]pyrazin-6-yl]-2-methylpropan-1-amine]
IC50 (Table 2): ≥ 10000 nM

CC1(CN)CCN(c2nc3[nH]nc(N4CCCc5ncccc54)c3nc2CO)CC1 [Compound 11C, (6-(4-(aminomethyl)-4-methylpiperidin-1-yl)-3-(3,4-dihydro-1,5-naphthyridin-1(2H)-yl)-1H-pyrazolo[3,4-b]pyrazin-5-yl)methanol]
IC50 (Table 3): < 1000 nM

CC(C)(CN)c1cnc2c(N3CCCc4ncccc43)n[nH]c2n1 [Compound 12B, 2-(3-(3,4-dihydro-1,5-naphthyridin-1(2H)-yl)-1H-pyrazolo[3,4-b]pyrazin-6-yl)-2-methylpropan-1-amine]
IC50 (Table 2): ≥ 10000 nM

C[C@@H]1OCC2(CCN(c3nc4[nH]nc(N5CCCc6ncccc65)c4nc3C#N)CC2)[C@@H]1N [Compound 12C, 6-[(3S,4S)-4-amino-3-methyl-2-oxa-8-azaspiro[4.5]decan-8-yl]-3-(1,2,3,4-tetrahydro-1,5-naphthyridin-1-yl)-1H-pyrazolo[3,4-b]pyrazine-5-carbonitrile]
IC50 (Table 3): < 1000 nM

NCC1CCCCN1C(=O)c1cnc2c(-c3cccc(Cl)c3F)n[nH]c2n1 (stereo not shown) [Compound 13B]
IC50 (Table 2): ≥ 10000 nM

Cc1nc2c(N3CCCc4ncccc43)n[nH]c2nc1N1CCC2(CC1)CO[C@@H](C)[C@H]2N [Compound 13C, (3S,4S)-8-(3-(3,4-dihydro-1,5-naphthyridin-1(2H)-yl)-5-methyl-1H-pyrazolo[3,4-b]pyrazin-6-yl)-3-methyl-2-oxa-8-azaspiro[4.5]decan-4-amine]
IC50 (Table 3): < 1000 nM

C[C@@H]1OCC2(CCN(c3nc4[nH]nc(N5CCCc6ncccc65)c4nc3CO)CC2)[C@@H]1N [Compound 14C, (6-((3S,4S)-4-amino-3-methyl-2-oxa-8-azaspiro[4.5]decan-8-yl)-3-(3,4-dihydro-1,5-naphthyridin-1(2H)-yl)-1H-pyrazolo[3,4-b]pyrazin-5-yl)methanol]
IC50 (Table 3): < 1000 nM

COCc1nc2c(N3CCCc4ncccc43)n[nH]c2nc1N1CCC(C)(CN)CC1 [Compound 15C]
IC50 (Table 3): < 1000 nM

CC1(CN)CCN(c2nc3[nH]nc(N4CCCc5c4cccc5S(C)(=O)=O)c3nc2CO)CC1 [Compound 16C]
IC50 (Table 3): < 1000 nM

C[C@@H]1OCC2(CCN(c3nc4[nH]nc(N5CC[C@H](C)c6cc(C#N)ccc65)c4nc3CO)CC2)[C@@H]1N [Compound 17C]
IC50 (Table 3): < 1000 nM

C[C@H]1CCN(c2n[nH]c3nc([C@H]4CC[C@@H](CN)CC4)cnc23)c2ccc(C#N)cc21 [Compound 18B, (4S)-4-methyl-1-{6-[(1r,4r)-4-(aminomethyl)cyclohexyl]-1H-pyrazolo[3,4-b]pyrazin-3-yl}-1,2,3,4-tetrahydroquinoline-6-carbonitrile]
IC50 (Table 2): < 1000 nM

C[C@H]1CCN(c2n[nH]c3nc([C@H]4CC[C@H](CN)CC4)cnc23)c2ccc(C#N)cc21 [Compound 19B, (4S)-4-methyl-1-{6-[(1s,4s)-4-(aminomethyl)cyclohexyl]-1H-pyrazolo[3,4-b]pyrazin-3-yl}-1,2,3,4-tetrahydroquinoline-6-carbonitrile]
IC50 (Table 2): 1000 to 10000 nM

C[C@@H]1OCC2(CCN(c3nc4[nH]nc(-c5cccc(Cl)c5F)c4nc3CO)CC2)[C@@H]1N [Compound 19C]
IC50 (Table 3): < 1000 nM
